Bounds are passed on as bounds.

Assay [1] deals with T1, human recombinant HDAC1 (Homo sapiens, UniProt Q13547).
T1 construct: purchased Enzo Life Sciences, Inc. BML-SE456
Put plainly: HDAC enzyme activity inhibition assay (HDAC Fluorimetric Drug Discovery Kit), HDAC1. Format: biochemical. The conditions noted are these: human recombinant HDAC1, Fluor de Lys-SIRT1 substrate, 30° C. 60 minutes. In a few lines: (§1)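 Recombinant human HDAC1 or HDAC6 (0.3 μg) reacted with 10 μM Fluor de Lys-SIRT1 substrate at 30 °C for 60 min. Developer added for 30 min, then fluorescence read at Ex 360/Em 460.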

Assay [2] addresses T2, human recombinant HDAC6 (Homo sapiens, UniProt Q9UBN7).
T2 construct: purchased Calbiochem Inc. 382180
T2 sequence (Q9UBN7 1-1215): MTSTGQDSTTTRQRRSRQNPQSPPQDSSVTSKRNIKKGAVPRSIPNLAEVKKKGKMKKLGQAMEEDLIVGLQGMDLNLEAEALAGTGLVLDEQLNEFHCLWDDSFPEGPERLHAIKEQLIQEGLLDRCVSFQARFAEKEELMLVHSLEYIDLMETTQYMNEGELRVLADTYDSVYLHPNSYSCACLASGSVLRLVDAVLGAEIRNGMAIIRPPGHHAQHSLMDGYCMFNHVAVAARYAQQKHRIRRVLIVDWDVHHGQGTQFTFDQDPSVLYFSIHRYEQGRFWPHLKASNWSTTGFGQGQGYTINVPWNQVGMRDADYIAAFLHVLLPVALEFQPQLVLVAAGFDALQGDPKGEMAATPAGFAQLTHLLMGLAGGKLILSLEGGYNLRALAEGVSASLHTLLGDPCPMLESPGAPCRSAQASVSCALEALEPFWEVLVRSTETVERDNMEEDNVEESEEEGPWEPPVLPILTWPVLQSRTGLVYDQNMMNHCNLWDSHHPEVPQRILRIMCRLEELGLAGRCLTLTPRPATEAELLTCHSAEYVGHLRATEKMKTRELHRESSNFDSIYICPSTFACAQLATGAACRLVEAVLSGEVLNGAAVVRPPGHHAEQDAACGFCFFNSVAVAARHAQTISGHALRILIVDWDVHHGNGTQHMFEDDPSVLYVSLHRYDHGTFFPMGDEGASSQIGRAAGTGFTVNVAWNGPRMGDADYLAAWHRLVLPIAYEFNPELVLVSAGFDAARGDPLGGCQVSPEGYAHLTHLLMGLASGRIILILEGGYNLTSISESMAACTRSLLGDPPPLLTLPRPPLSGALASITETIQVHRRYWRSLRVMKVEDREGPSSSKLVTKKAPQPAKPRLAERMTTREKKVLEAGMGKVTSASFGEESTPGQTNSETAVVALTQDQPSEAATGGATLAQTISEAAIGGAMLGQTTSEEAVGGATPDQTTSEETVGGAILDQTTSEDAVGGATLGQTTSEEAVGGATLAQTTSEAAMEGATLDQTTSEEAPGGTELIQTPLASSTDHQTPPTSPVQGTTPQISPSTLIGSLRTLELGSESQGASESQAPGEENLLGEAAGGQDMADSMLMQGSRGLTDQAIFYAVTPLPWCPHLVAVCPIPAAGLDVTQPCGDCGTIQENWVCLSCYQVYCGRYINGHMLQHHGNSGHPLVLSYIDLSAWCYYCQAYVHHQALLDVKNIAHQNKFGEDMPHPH
The experiment in a line: HDAC enzyme activity inhibition assay (HDAC Fluorimetric Drug Discovery Kit), HDAC6. Format: biochemical. The conditions noted are these: for HDAC6 selectivity (fold): HDAC1 vs HDAC6; for IC50: human recombinant HDAC6, same protocol as HDAC1. In a few lines:
as §1

T1 sequence (Q13547 whole entry): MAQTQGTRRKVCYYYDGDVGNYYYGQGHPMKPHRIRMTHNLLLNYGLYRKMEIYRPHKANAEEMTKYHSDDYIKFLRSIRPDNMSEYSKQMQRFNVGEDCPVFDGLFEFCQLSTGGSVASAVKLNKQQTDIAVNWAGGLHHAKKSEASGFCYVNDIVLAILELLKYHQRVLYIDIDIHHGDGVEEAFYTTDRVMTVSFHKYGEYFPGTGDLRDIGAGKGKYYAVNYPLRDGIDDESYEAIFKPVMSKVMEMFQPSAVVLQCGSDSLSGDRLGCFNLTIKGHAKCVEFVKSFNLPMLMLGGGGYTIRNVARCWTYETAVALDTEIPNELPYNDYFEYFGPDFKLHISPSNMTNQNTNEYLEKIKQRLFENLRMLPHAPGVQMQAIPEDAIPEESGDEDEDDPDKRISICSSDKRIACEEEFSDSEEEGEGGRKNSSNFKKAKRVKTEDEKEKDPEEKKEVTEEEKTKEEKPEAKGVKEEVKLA

In the case of `O=C(N(Cc1ccc(-c2nnc(C(F)F)o2)cn1)c1cccc(F)c1)C1(F)CN(CC2CCCCC2)C1` [Compound 3171, 1-(cyclohexylmethyl)-N-((5-(5-(difluoromethyl)-1,3,4-oxadiazol-2-yl)pyridin-2-yl)methyl)-3-fluoro-N-(3-fluorophenyl)azetidine-3-carboxamide], the values for the IC50 in assay [1] and in assay [2] were over 50000 nM and 67.4 nM, respectively. The “HDAC6 selectivity (fold)” value in assay [2] turned out to be 741 fold.
In the case of `O=C(N(Cc1ccc(-c2nnc(C(F)F)o2)cn1)c1cccc(F)c1)C1(F)CN(C2CCSCC2)C1` [Compound 3172, N-((5-(5-(difluoromethyl)-1,3,4-oxadiazol-2-yl)pyridin-2-yl)methyl)-3-fluoro-N-(3-fluorophenyl)-1-(tetrahydro-2H-thiopyran-4-yl)azetidine-3-carboxamide], the 50% inhibitory concentration (IC50) (usually the concentration that gives 50% inhibition) in assay [1] was over 50000 nM. In assay [2], the “HDAC6 selectivity (fold)” value is 2,192 fold and the IC50 amounted to 22.8 nM.
For the molecule `O=C(N(Cc1ccc(-c2nnc(C(F)F)o2)cn1)c1ccccc1)C1(F)CN(CC2CCOCC2)C1` [Compound 3216], the IC50 in assay [1] was over 50000 nM. Moreover, in assay [2], the “HDAC6 selectivity (fold)” value was determined as 875 fold and the IC50 amounted to 57.1 nM.
The corresponding values for `O=C(C1CC1)N1CC(F)(C(=O)N(Cc2ccc(-c3nnc(C(F)F)o3)cn2)c2cccc(F)c2)C1` [Compound 3217, 1-(cyclopropanecarbonyl)-N-((5-(5-(difluoromethyl)-1,3,4-oxadiazol-2-yl)pyridin-2-yl)methyl)-3-fluoro-N-(3-fluorophenyl)azetidine-3-carboxamide] are over 50000 nM, 1,440 fold and 34.7 nM.
The corresponding values for `O=C(N(Cc1ccc(-c2nnc(C(F)F)o2)cn1)c1cccc(F)c1)C1(F)CN(CC2CCOCC2)C1` [Compound 3218] are over 50000 nM, 1,187 fold and 42.1 nM.
The corresponding values for `CN1CC(N2CC(F)(C(=O)N(Cc3ccc(-c4nnc(C(F)F)o4)cn3)c3cccc(F)c3)C2)C1` [Compound 3219, N-((5-(5-(difluoromethyl)-1,3,4-oxadiazol-2-yl)pyridin-2-yl)methyl)-3-fluoro-N-(3-fluorophenyl)-1′-methyl-[1,3′-biazetidine]-3-carboxamide] are over 50000 nM, 988 fold and 50.6 nM.
Regarding `CCN1CC(N2CC(F)(C(=O)N(Cc3ccc(-c4nnc(C(F)F)o4)cn3)c3cccc(F)c3)C2)C1` [Compound 3220, N-((5-(5-(difluoromethyl)-1,3,4-oxadiazol-2-yl)pyridin-2-yl)methyl)-1′-ethyl-3-fluoro-N-(3-fluorophenyl)-[1,3′-biazetidine]-3-carboxamide], the IC50 in assay [1] was over 50000 nM. In assay [2], the “HDAC6 selectivity (fold)” value was 1,272 fold and the IC50 came to 39.3 nM.
On the same counts, the results for `CCCCN1CC(N2CC(F)(C(=O)N(Cc3ccc(-c4nnc(C(F)F)o4)cn3)c3cccc(F)c3)C2)C1` [Compound 3222, 1′-butyl-N-((5-(5-(difluoromethyl)-1,3,4-oxadiazol-2-yl)pyridin-2-yl)methyl)-3-fluoro-N-(3-fluorophenyl)-[1,3′-biazetidine]-3-carboxamide] are over 50000 nM, 1,420 fold and 35.2 nM.
The corresponding values for `CC(C)CN1CC(N2CC(F)(C(=O)N(Cc3ccc(-c4nnc(C(F)F)o4)cn3)c3cccc(F)c3)C2)C1` [Compound 3223, N-((5-(5-(difluoromethyl)-1,3,4-oxadiazol-2-yl)pyridin-2-yl)methyl)-3-fluoro-N-(3-fluorophenyl)-1′-isobutyl-[1,3′-biazetidine]-3-carboxamide] are over 50000 nM, 1,424 fold and 35.1 nM.
The corresponding values for `CC(C)N1CC(N2CC(F)(C(=O)N(Cc3ccc(-c4nnc(C(F)F)o4)cn3)c3cccc(F)c3)C2)C1` [Compound 3224] are over 50000 nM, 1,326 fold and 37.7 nM.

For the origin of these results see US20230278995A1, “1,3,4-OXADIAZOLE DERIVATIVE COMPOUNDS AS HISTONE DEACETYLASE 6 INHIBITOR, AND THE PHARMACEUTICAL COMPOSITION COMPRISING THE SAME” (CHONG KUN DANG PHARMACEUTICAL CORP., priority 2020, published 2023).
